Measurements reported in patent US10961270B2, “Compounds and compositions for treating conditions associated with sting activity” (Innate Tumor Immunity, Inc., priority 2016, dated 2021).
Like-named read-outs stand apart in the source and are kept apart here.

Key:
[1] = test system: STING pathway (IRF pathway reporter, THP1-Dual cells); assay: STING pathway activation, IRF pathway secreted luciferase (Lucia) reporter in THP1-Dual cells; type: cell-based; conditions: Quanti LUC luminescence, 24-hour and 48-hour plates prepared, duration not given, read-out: IRF3 (EC50 μM)
Method: (§1) STING pathway activation by the compounds described herein was measured using THP1-Dual™ cells. These cells are THP1 monocytes that have been modified to be reporters for the NF[…]B pathway (by inducing secreted embryonic alkaline phosphatase (SEAP) expression) and the IRF pathway (by inducing secreted luciferase (LUCIA)). Both of these pathways are activated by STING agonists in these cells.
(§2) THP1 Dual™ cells (obtained from Invivogen) are maintained in a cell growth medium that includes Roswell Park Memorial Institute medium (RPMI), 10% fetal calf serum (FCS), 100 U/ml Pen/Strep, 2 mM L-glut, 10 mM Hepes, and 1 mM sodium pyruvate. Prior to the assay, the cells were transferred to an assay medium that includes is RPMI, 5% FCS, 100 U/ml Pen/Strep, 2 mM L-glut, 10 mM Hepes, and 1 mM sodium pyruvate. Cells were then counted and evaluated for viability by trypan blue exclusion assay.
(§3) Compounds were dissolved in water or DMSO depending, for example, on their solubility in water or DMSO. The compounds are then diluted in the assay medium and plated into wells of a 384-well tissue culture plate in […] portions. Cells are then added in […] assay medium to result in a final cell concentration of 80,000 cells per well.
(§4) For each set of compounds, two plates were prepared: one plate that was subjected to a 24-hour assay duration, and one plate that was subjected to a 48-hour assay duration. The plates are incubated during their respective assay durations at 37° C., with 5% CO2.
(§5) To carry out the secreted embryonic alkaline phosphatase reporter, 10 µL of cell supernatant was mixed with 90 μL of QUANTI-Blue in a flat-bottom 384 well plate. The plates were incubated at 37′C for 1-2 hours. SEAP activity was measured using a spectrophotometer set at 620 nm. In the secreted luciferase (i.e., Lucia) assay, 10 µL of THP1-Blue™ WASG cell supernatant was plated, then 50 μL Quanti LUC Solution was added. Luminescence of the wells was then measured.

[2] = test system: STING pathway (NFκB pathway reporter, THP1-Dual cells); assay: STING pathway activation, NFκB pathway secreted embryonic alkaline phosphatase (SEAP) reporter in THP1-Dual cells; type: cell-based; conditions: QUANTI-Blue, 620 nm, 24-hour and 48-hour plates prepared, duration not given
Method: as §1, §2, §3, §4, §5

Row | Compound | EC50 [1] [µM] | EC50 [2] [µM] | EC50 ([1]; Homo sapiens, THP1-Dual) [µM] | EC50 ([2]; Homo sapiens, THP1-Dual) [µM] | other results
1 | Nc1ncnc2c1ncn2[C@@H]1O[C@@H]2COP(=O)(S)N[C@H]3[C@@H](O)[C@H](n4cnc5c(N)ncnc54)O[C@@H]3COP(=O)(S)N[C@H]2[C@H]1O (single isomer, unassigned) [Compound 74-0A1] | 1 to 10 | 1 to 10 |  |  | 
2 | Nc1ncnc2c1ncn2[C@@H]1O[C@@H]2COP(=O)(S)N[C@H]3[C@@H](O)[C@H](n4cnc5c(N)ncnc54)O[C@@H]3COP(=O)(S)N[C@H]2[C@H]1O (single isomer, unassigned) [Compound 74-0A2] | 1 to 10 | < 1 |  |  | 
3 | Nc1ncnc2c1ncn2[C@@H]1O[C@@H]2COP(=O)(S)N[C@H]3[C@@H](O)[C@H](n4cnc5c(N)ncnc54)O[C@@H]3COP(=O)(O)N[C@H]2[C@H]1O (single isomer, unassigned) [Compound 74-0B0] |  |  | 10 to 49 | 10 to 49 | 
4 | Nc1ncnc2c1ncn2[C@@H]1O[C@@H]2COP(=O)(S)N[C@H]3[C@@H](O)[C@H](n4cnc5c(N)ncnc54)O[C@@H]3COP(=O)(S)N[C@H]2[C@H]1O (single isomer, unassigned) [Compound 74-0B1] | 10 to 49 | 50 to 100 |  |  | 
5 | Nc1nc2c(ncn2[C@@H]2O[C@@H]3COP(=O)(S)N[C@H]4[C@@H](O)[C@H](n5cnc6c(=O)[nH]c(N)nc65)O[C@@H]4COP(=O)(O)N[C@H]3[C@H]2O)c(=O)[nH]1 (single isomer, unassigned) [Compound 76-0A1] |  |  | 10 to 49 | 1 to 10 | 
6 | Nc1nc2c(ncn2[C@@H]2O[C@@H]3COP(=O)(S)N[C@H]4[C@@H](O)[C@H](n5cnc6c(=O)[nH]c(N)nc65)O[C@@H]4COP(=O)(S)N[C@H]3[C@H]2O)c(=O)[nH]1 (single isomer, unassigned) [Compound 76-0A2] | 10 to 49 | 10 to 49 |  |  | 
7 | Nc1nc2c(ncn2[C@@H]2O[C@@H]3COP(=O)(S)N[C@H]4[C@@H](O)[C@H](n5cnc6c(=O)[nH]c(N)nc65)O[C@@H]4COP(=O)(S)N[C@H]3[C@H]2O)c(=O)[nH]1 (single isomer, unassigned) [Compound 76-0A3] | 1 to 10 | < 1 |  |  | 
8 | Nc1nc2c(ncn2[C@@H]2O[C@@H]3COP(=O)(S)N[C@H]4[C@@H](O)[C@H](n5cnc6c(=O)[nH]c(N)nc65)O[C@@H]4COP(=O)(S)N[C@H]3[C@H]2O)c(=O)[nH]1 (single isomer, unassigned) [Compound 76-0B1] | 10 to 49 | 50 to 100 |  |  | 
9 | Nc1ncnc2c1ncn2[C@@H]1O[C@@H]2COP(=O)(O)N[C@H]3[C@@H](O)[C@H](n4cnc5c(N)ncnc54)O[C@@H]3COP(=O)(O)N[C@H]2[C@H]1O [Compound 73, Diammonium (1S,6S,8R,9R,10S,15S,17R,18R)-8,17-bis(6-amino-9H-purin-9-yl)-9,18-dihydroxy-3,12-dioxo-4,7,13,16-tetraoxa-2,11-diaza-3λ^s,12λ^s-diphosphatricyclo[13.3.0.0^6,10]octadecane-3,12-bis(olate)] |  |  | 10 to 49 | 1 to 10 | 
10 | Nc1nc2c(ncn2[C@@H]2O[C@@H]3COP(=O)(O)N[C@H]4[C@@H](O)[C@H](n5cnc6c(=O)[nH]c(N)nc65)O[C@@H]4COP(=O)(O)N[C@H]3[C@H]2O)c(=O)[nH]1 [Compound 75, Diammonium (1S,6S,8R,9R,10S,15S,17R,18R)-8,17-bis(2-amino-6-oxo-6,9-dihydro-1H-purin-9-yl)-9,18-dihydroxy-3,12-dioxo-4,7,13,16-tetraoxa-2,11-diaza-3λ^s,12λ^s-diphosphatricyclo[13.3.0.0^6,10]octadecane-3,12-bis(olate)] |  |  | 10 to 49 | 10 to 49 | 
11 | Nc1ncnc2c1ncn2[C@@H]1O[C@@H]2CNP(=O)(S)O[C@H]3[C@@H](F)[C@H](n4cnc5c(N)ncnc54)O[C@@H]3CNP(=O)(S)O[C@H]2[C@H]1F (stereo partly drawn) [Compound 77, Diammonium [(1R,6R,8R,9R,10R,15R,17R,18R)-8,17-bis(6-amino-9H-purin-9-yl)-9,18-difluoro-3,12-dioxo-12-sulfanidyl-2,7,11,16-tetraoxa-4,13-diaza-3λ^s,12λ^s-diphosphatricyclo[13.3.0.0^6,10]octadecan-3-yl]sulfanide] |  |  |  |  | EC50 ([1]; Homo sapiens): 50 to 100 µM; EC50 ([2]; Homo sapiens): 50 to 100 µM
12 | Nc1ncnc2c1ncn2[C@@H]1O[C@@H]2COP(=O)(O)N[C@H]3[C@@H](F)[C@H](n4cnc5c(N)ncnc54)O[C@@H]3COP(=O)(O)N[C@H]2[C@H]1F [Compound 78, Diammonium (1R,6S,8R,9R,10R,15S,17R,18R)-8,17-bis(6-amino-9H-purin-9-yl)-9,18-difluoro-3,12-dioxo-4,7,13,16-tetraoxa-2,11-diaza-3λ^s,12λ^s-diphosphatricyclo[13.3.0.0^6,10]octadecane-3,12-bis(olate)] |  |  | 50 to 100 | 50 to 100 | 
13 | Diammonium [(1S,6S,8R,9R,10S,15S,17R,18R)-8-(2-amino-6-oxo-6,9-dihydro-1H-purin-9-yl)-17-(6-amino-9H-purin-9-yl)-9,18-dihydroxy-3,12-dioxo-12-sulfanidyl-4,7,13,16-tetraoxa-2,11-diaza-3λ^s,12λ^s-diphosphatricyclo[13.3.0.0^6,10]octadecan-3-yl]sulfanide [Compound 72-0A2] | 1 to 10 | 1 to 10 |  |  | 
14 | Diammonium [(1S,6S,8R,9R,10S,15S,17R,18R)-8-(2-amino-6-oxo-6,9-dihydro-1H-purin-9-yl)-17-(6-amino-9H-purin-9-yl)-9,18-dihydroxy-3,12-dioxo-12-sulfanidyl-4,7,13,16-tetraoxa-2,11-diaza-3λ^s,12λ^s-diphosphatricyclo[13.3.0.0^6,10]octadecan-3-yl]sulfanide [Compound 72-0A3] | 1 to 10 | < 1 |  |  | 
15 | Diammonium [(1S,6S,8R,9R,10S,15S,17R,18R)-8-(2-amino-6-oxo-6,9-dihydro-1H-purin-9-yl)-17-(6-amino-9H-purin-9-yl)-9,18-dihydroxy-3,12-dioxo-12-sulfanidyl-4,7,13,16-tetraoxa-2,11-diaza-3λ^s,12λ^s-diphosphatricyclo[13.3.0.0^6,10]octadecan-3-yl]sulfanide [Compound 72-0B1] | 1 to 10 | 50 to 100 |  |  | 
16 | Diammonium [(1S,6S,8R,9R,10S,15S,17R,18R)-8-(2-amino-6-oxo-6,9-dihydro-1H-purin-9-yl)-17-(6-amino-9H-purin-9-yl)-9,18-dihydroxy-3,12-dioxo-12-sulfanidyl-4,7,13,16-tetraoxa-2,11-diaza-3λ^s,12λ^s-diphosphatricyclo[13.3.0.0^6,10]octadecan-3-yl]sulfanide [Compound 72-0B2] | 10 to 49 | 10 to 49 |  |  | 
